Where two headings read alike, the source gives them in different places.

These results are taken from US20250230138A1, “COMPOUNDS HAVING A T-STRUCTURE FORMED BY AT LEAST FOUR CYCLES FOR USE IN THE TREATMENT OF CANCER AND OTHER INDICATIONS” (TheRas, Inc., priority 2022, published 2025).

In assay [1] the target is Cys242 in human PIK3CA (157-299) (Homo sapiens (Human), UniProt P42336). The assay can be described thus: Covalent modification assay using MALDI-TOF MS. Format: biochemical. The note with it: 4 h reaction time point. As for the experimental part: Matrix-Assisted Laser Desorption Ionization-Time of Flight Mass Spectrometry (MALDI-TOF MS) analysis of covalent modification of Cys242 in human PIK3CA (157-299) was performed.
Cys242 in human PIK3CA (157-299), sequence (P42336 157-299): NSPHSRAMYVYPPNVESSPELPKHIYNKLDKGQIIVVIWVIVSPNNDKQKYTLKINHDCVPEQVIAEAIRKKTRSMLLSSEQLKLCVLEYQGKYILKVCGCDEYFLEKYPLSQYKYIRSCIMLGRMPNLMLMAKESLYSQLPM
Reaction: 3.33 μM or 1 μM of PIK3CA (157-299) protein (produced in-house by Protein Expression Laboratory, FNLCR/Leidos Biomed) in 20 mM HEPES buffer containing 150 mM NaCl, 2 mM MgCl2, pH 7.3 was prepared freshly before assay. Twelve-μL aliquots of protein were dispensed onto low volume 384-well plate, then 470 nL DMSO and 30 nL of tested compounds from 10 mM DMSO stocks were added to appropriate wells using ECHO 555 acoustic liquid handler (Labcyte Inc.). For each reaction/assay, three blanks were prepared by mixing 12 μL of protein solution with 500 nL DMSO. The wells content was carefully mixed by aspiration, and then the plate was sealed by an adhesive cover, centrifuged at 931 g for 1 minute, and kept in the dark at room temperature until 15 min, 30 min, 2 h, or 4 h collections.
Targetpretreatment: Before each assay MALDI target (Bruker MPT 384 ground steel BC) was pre-treated by pipetting on each spot 0.75 μL of saturated sinapinic acid in acetonitrile (ACN).
Sample preparation: At collection time point, 2 μL of reaction mixtures were pipetted out into […] MALDI matrix solution (saturated solution of sinapinic acid in 1:1 ACN:water solution containing 0.15% trifluoroacetic acid (TFA)) deposited on 384 well polypropylene plate. The resulting solution was mixed by aspiration, centrifuged at 931 g for 1 minute, then 1.5 μL aliquots were dispensed on pre-treated MALDI target using Beckman Coulter Biomek FX^P 96/384-Span-8 Laboratory Automation Workstation. Finally, the MALDI target was dried under a mild vacuum to produce spots with a fine crystalline structure.
Measurements: MALDI-TOF measurements were performed on Bruker Daltonics rapifleX Tissuetyper TOF-TOF mass spectrometer using linear mode and mass ranging from 16.0 to 19.6 kDa. Detector gain was set to 0.64×(459 V), sample rate to 5 GS/s, real-time smoothing to medium (175 MHz), laser smart beam pattern was set to “Custom” single smartbeam beam scan with a scan range of 40 μm on both X and Y axis, and the laser frequency was 10000 Hz. Spectra were automatically collected using the custom AutoXecute method. Laser power was auto adjusted using fuzzy control. The peak selection range was set to be between 16.0 and 18.5 kDa. Peak evaluation uses a half-width parameter set to be smaller than 40 Da for processed spectrograms (centroid peak detection; smoothed by SavitzkyGolay algorithm using 7 m/z width and 2 cycles; baseline was subtracted using a median algorithm with flatness 1 and median level 0). Fuzzy control used Proteins/Oligonucleotides protocol with minimum half-width 1/10 times above threshold. Up to 40000 satisfactory shots were collected in 10000 short steps. Dynamic termination was implemented to finish data collection when the peak signal/noise ratio was reaching a value of 1000.
Spectra processing: Spectra were smoothed by SavitzkyGolay algorithm using 7 m/z width and three cycles. Centroid peak detection algorithm was used with signal to noise threshold set to 6, relative intensity threshold 3%, peak width 10 m/z, and median baseline subtraction using flatness of 1 and the median level of 0.1. Peak intensity and area under the peak were evaluated and recorded for all peaks between 16.0 and 19.5 kDa.
Calculation of percent modification: Percent modification was calculated as a ratio of peak height for protein modified by compound to the sum of the peak height of remaining protein plus peak height for protein modified by a compound. If multiple modifications were observed each was calculated as a ratio of peak height for given modification versus the sum of peak heights for all observed protein species.

Assay [2] deals with pAKT in BT474 cells. The assay can be described thus: Cell-based pAKT HTRF assay in BT474 cells. The note with it: BT474 cells, 4 hr incubation, read-out: pAKT inhibition IC50 in BT474 cells. The procedure:
On Day 1, cells were seeded into 96-well plates at 2.5×10^4 cells/well in complete growth media (DMEM, 10% FBS). On Day 2, cells were treated with compounds at 0.25% DMSO. The source plate was created with compounds diluted in media at 5-fold the final assay concentration. The compounds are run in a 9-point concentration curve starting at 3 μM, with a 3-fold dilution between concentrations. 20 μL was transferred onto the cell plates (final volume in wells was 100 μL). Plates were harvested after 4 hr incubation by aspirating media and adding kit-supplied 1× supplemented lysis buffer to all wells (75 μL per well). Plates were then placed on a plate shaker and incubated at 850 rpm for an additional 30 min. The antibody mixture solution was prepared by diluting aliquoted d2 and Eu Cryptate antibodies 1:20 in kit supplied detection buffer, then mixed the diluted antibodies solutions (1:1 v:v). 4 μL of this solution was then added to a 384-well detection plate (Perkin Elmer; 6008230). Samples were homogenized by pipetting up and down and then transferred (16 μL of cell lysates) from the 96-well cell culture plate to two wells of the HTRF 384-well detection plate containing the antibody solution. Plates were centrifuged (524 g for 1 min) and allowed to incubate between 4 and 24 h at room temperature. The maximum signal is reached after 4 h incubation time and remains stable over a period of 24 hours. Therefore, readings can be made between 4 and 24 h of incubation. Plates were centrifuged again (524 g for 1 m), and analyzed on the EnVision plate reader using the following settings: Excitation 320 nm, Bandwidth […]; Emission 615 nm, Bandwidth […], Gain 10000, Flashes 100, Lag 60 μs.
For orientation: In TR-FRET formats the signal depends on donor and acceptor labels being close together.

Setting [3] is: 3.33 μM protein target, 1:7.5 protein to compound ratio (compounds 1-852).

In general, IC50 refers to the midpoint of a concentration-inhibition curve. Take `C=C(F)C(=O)N1CCn2nc(-c3nc(-c4ccc5c(c4)CNC5=O)c4ccsc4c3-c3c(F)cc(F)cc3OCC)cc2C1` [Compound 321]: the “% of modification” value in assay [1] (setting [3]) is on record as “B (50%<percent of modification <75%)”. Also, the half-inhibitory concentration (IC50) in assay [2] (Compounds 10-999) was under 0.1 µM.
As for `C=CC(=O)N1CCc2ccc(-c3nc(-c4ccc5c(c4)CN(C)CC5(F)F)c4ccsc4c3-c3c(F)cc(F)cc3OCCOC)cc2C1` [Compound 1272], the “% of modification” value in assay [1] (1 μM protein target, 1:5 protein to compound ratio (compounds 853-1279)) was “D (percent of modification <25%)”. Moreover, the 50% inhibitory concentration (IC50) in assay [2] (Compounds 1000-1279) was over 1 µM.
For the compound `C=CC(=O)N1Cc2cc(-c3nc(-c4ccc5c(c4)CCN(C)C5)c4ccsc4c3-c3c(F)cc(F)cc3OC[C@@H](C)O)nn2[C@@H](C)C1` [Compound 590], the “% of modification” value in assay [1] (setting [3]) is reported as “A (percent of modification of PIK3CA protein ≥75%)”. For the same compound, the IC50 in assay [2] (Compounds 10-999) is under 0.1 µM.
The like results for `C=CC(=O)N1CC[C@H](n2cc(-c3nc(-c4ccc5c(c4)CCC(O)C5)c4ccsc4c3-c3ccc(F)cc3OCCOC)cn2)C1` (stereo partly drawn) [Compound 64] were, in that order, “A (percent of modification of PIK3CA protein ≥75%)” and under 0.1 µM.
The like results for `C=CC(=O)N1CCc2ncc(-c3nc(-c4cccc(C#N)c4)c4ccsc4c3-c3c(F)cc(F)cc3OC(C)C)cc2C1` [Compound 381] were, in that order, “A (percent of modification of PIK3CA protein ≥75%)” and under 0.1 µM.
The like results for `C=CC(=O)N1CCc2nc(-c3nc(-c4ccc5c(c4)CCN(C)C5)c4ccsc4c3-c3c(F)cc(F)cc3OC(C)C)sc2C1` (single isomer, unassigned) [Compound 447] were, in that order, “D (percent of modification <25%)” and 0.1 to 1 µM.
Consider `CC#CC(=O)N1CCc2nc(-c3nc(-c4ccc5c(c4)CCNC5)c4ccsc4c3-c3ccc(F)cc3OCCOC)sc2C1` [Compound 127], for which the “% of modification” value in assay [1] (setting [3]) is listed as “D (percent of modification <25%)”. Further, the IC50 in assay [2] (Compounds 10-999) was 1 to 3 µM.
The like results for `C=CC(=O)N1Cc2cc(-c3nc(-c4ccc5c(c4)CCN(C)C5)c4ccsc4c3-c3c(F)cc(F)cc3OC(C)C)nn2C[C@H]1C` [Compound 479, 1-((R)-2-((S)-7-(2,4-difluoro-6-isopropoxyphenyl)-4-(2-methyl-1,2,3,4-tetrahydroisoquinolin-6-yl)thieno[3,2-c]pyridin-6-yl)-6-methyl-6,7-dihydropyrazolo[1,5-a]pyrazin-5(4H)-yl)prop-2-en-1-one] were, in that order, “A (percent of modification of PIK3CA protein ≥75%)” and under 0.1 µM.
`C=CC(=O)N1CCc2ccc(-c3nc(-c4cnc5c(c4)CNC(=O)C5)c4ccsc4c3-c3c(F)cc(F)cc3OCCOC)cc2C1` [Compound 482]: in assay [1] (setting [3]), the “% of modification” value is “A (percent of modification of PIK3CA protein ≥75%)”. For the same compound, the IC50 in assay [2] (Compounds 10-999) is under 0.1 µM.
The like results for `C=CC(=O)N1CC(n2cc(-c3nc(-c4ccc5c(c4)CNC(=O)C5)c4ccsc4c3-c3ccc(F)cc3OCCOC)cn2)C1` [Compound 72] were, in that order, “A (percent of modification of PIK3CA protein ≥75%)” and under 0.1 µM.
`C=CC(=O)N1CCn2nc(-c3nc(-c4ccnc(N)c4)c4ccsc4c3-c3ccc(F)cc3OC(F)F)cc2C1` [Compound 226]: the “% of modification” value in assay [1] (setting [3]) is on record as “A (percent of modification of PIK3CA protein ≥75%)”. Further, the IC50 in assay [2] (Compounds 10-999) is under 0.1 µM.
Turning to `C=CC(=O)N1CCc2ncc(-c3nc(-c4cnc5c(c4)CN(C)CC5)c4ccsc4c3-c3ccc(F)cc3OC(C)C)cc2C1` [Compound 319], in assay [1] (setting [3]), the “% of modification” value was “A (percent of modification of PIK3CA protein ≥75%)”. Moreover, in assay [2] (Compounds 10-999), the IC50 was under 0.1 µM.
The like results for `C=CC(=O)N1CCc2ncc(-c3nc(-c4cncc(Cl)c4)c4ccsc4c3-c3c(F)cc(F)cc3OCCOC)cc2C1` [Compound 377] were, in that order, “A (percent of modification of PIK3CA protein ≥75%)” and under 0.1 µM.
The like results for `C=CC(=O)N1CCn2nc(-c3nc(-c4ccc5c(c4)C(=O)N(C)C5)c4ccsc4c3-c3c(F)cc(F)cc3OCCOC)cc2[C@H]1C` [Compound 846] were, in that order, “A (percent of modification of PIK3CA protein ≥75%)” and under 0.1 µM.
The like results for `C=CC(=O)N1CC(n2cc(-c3nc(C4CCC5(CC4)CNC5)c4ccsc4c3-c3ccc(F)cc3OCCOC)cn2)C1` [Compound 147] were, in that order, “A (percent of modification of PIK3CA protein ≥75%)” and 1 to 3 µM.
For `C=CC(=O)N1CCc2nc(-c3nc(-c4ccc5c(c4)CCNC5)c4c(F)csc4c3-c3c(F)cc(F)cc3OCCOC)sc2C1` [Compound 434, 1-[2-[7-[2,4-difluoro-6-(2-methoxyethoxy)phenyl]-3-fluoro-4-(1,2,3,4-tetrahydroisoquinolin-6-yl)thieno[3,2-c]pyridin-6-yl]-6,7-dihydro-4H-thiazolo[5,4-c]pyridin-5-yl]prop-2-en-1-one], in assay [1] (setting [3]), the “% of modification” value is “A (percent of modification of PIK3CA protein ≥75%)”. Also, the IC50 in assay [2] (Homo sapiens, BT-474, Compounds 10-999) is 0.1 to 1 µM.
`C=CC(=O)N1Cc2cc(-c3nc(-c4ccc5[nH]cnc5c4)c4ccsc4c3-c3c(F)cc(F)cc3OCCOC)nn2C[C@H]1C` [Compound 720]: the “% of modification” value in assay [1] (setting [3]) is on record as “A (percent of modification of PIK3CA protein ≥75%)”. In addition, the IC50 in assay [2] (Compounds 10-999) is under 0.1 µM.
The like results for `C=CC(=O)N1CCn2nc(-c3nc(-c4ccc5cn(C)nc5c4)c4ccsc4c3-c3c(F)cc(F)cc3OCCOC)cc2C1C` (stereo not drawn) [Compound 766] were, in that order, “A (percent of modification of PIK3CA protein ≥75%)” and under 0.1 µM.
The like results for `C=C(F)C(=O)N1CCn2nc(-c3nc(-c4ccc5c(c4)CCNC5=O)c4ccsc4c3-c3ccc(F)cc3OC(C)C)nc2C1` [Compound 256] were, in that order, “A (percent of modification of PIK3CA protein ≥75%)” and 0.1 to 1 µM.
The like results for `C=CC(=O)N1CCn2nc(-c3nc(-c4cncc(C#N)c4)c4ccsc4c3-c3c(F)cc(F)cc3OC[C@@H](C)O)cc2[C@@H]1C` [Compound 676] were, in that order, “A (percent of modification of PIK3CA protein ≥75%)” and under 0.1 µM.
With `C=CC(=O)N1CCn2nc(-c3nc(-c4cnn(C)c4)c4ccsc4c3-c3ccc(F)cc3OC(C)C)nc2C1` [Compound 225], in assay [1] (setting [3]), the “% of modification” value is reported as “A (percent of modification of PIK3CA protein ≥75%)”. The IC50 in assay [2] (Compounds 10-999) was under 0.1 µM.
